# In patent US20110045101A1, “FUNGICIDAL SUBSTITUTED AZOLES” (E.I. Du Pont De Nemours and Company, priority 2009, published 2011):
# Marks after values point to notes of the source that are not given here.
# Assays:
# Assay type in all cases: in vivo
# Conditions in all cases: 100 = 100% disease control
# [1] = test system: Botrytis cinerea; experiment: Test C: tomato Botrytis on tomato seedlings, sprayed the day before inoculation, visual disease rating
# Outline: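 Rate: 200 ppm sprayed to run-off, corresponding to 500 g/ha; flagged values used 40 ppm. Vehicle was aqueous acetone (1:1) plus 250 ppm surfactant, compounds predissolved in acetone at 3% of volume. Plants were tomato seedlings.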
# [2] = test system: Alternaria solani; experiment: Test D: tomato early blight, sprayed the day before inoculation, visual disease rating
# Outline: (§1)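 Plants received a run-off spray at 200 ppm (equivalent to 500 g/ha) or, for starred values, 40 ppm. Formulation used acetone at 3% of volume in a 50/50 acetone/water mix carrying 250 ppm Trem® 014.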
# [3] = test system: Septoria nodorum; experiment: Test F: wheat glume blotch on wheat seedlings, sprayed the day before inoculation, visual disease rating
# Outline: as §1
# [4] = test system: Septoria tritici; experiment: Test G: wheat leaf blotch on wheat seedlings, sprayed the day before inoculation, visual disease rating
# Outline: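 Spray to run-off, 200 ppm (≈500 g/ha; starred = 40 ppm), acetone/water 50/50 + 250 ppm Trem® 014. Spore inoculation +1 d. 24° C saturated 48 h → 20° C 19 d. Visual rating.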
# [5] = test system: Puccinia recondita f. sp. tritici; experiment: Test H: wheat leaf rust, test suspension sprayed after inoculation of wheat seedlings, visual disease rating
# Source text: General protocol for preparing test suspensions for Tests A-J: The test compounds were first dissolved in acetone in an amount equal to 3% of the final volume and then suspended at the desired concentration (in ppm) in acetone and purified water (50/50 mix) containing 250 ppm of the surfactant Trem® 014 (polyhydric alcohol esters). The resulting test suspensions were then used in tests A-J. Spraying a 200 ppm test suspension to the point of run-off on the test plants was the equivalent of a rate of 500 g/ha. […] Wheat seedlings were inoculated with a spore suspension of Puccinia recondita f. sp. tritici (the causal agent of wheat leaf rust) and incubated in a saturated atmosphere at 20° C. for 24 h, and then moved to a growth chamber at 20° C. for 2 days. […] A dash (-) indicates no test results. All results are for 200 ppm except where followed by “*”, which indicates 40 ppm.
# [6] = test system: Puccinia recondita f. sp. tritici; experiment: Test I: wheat leaf rust on wheat seedlings, sprayed the day before inoculation, visual disease rating
# Outline: as §1
# [7] = test system: Erysiphe graminis f. sp. tritici; experiment: Test J: wheat powdery mildew on wheat seedlings, sprayed the day before inoculation, visual disease rating
# Outline: as §1
# [8] = 200 ppm, 0 = no control relative to controls
# [9] = 40 ppm (marked *), 0 = no control
Compound,"Test C disease control rating [1, 8] [%]","Test D disease control rating [2, 8] [%]","Test F disease control rating [3, 8] [%]","Test G disease control rating [4, 8] [%]","Test I disease control rating [6, 8] [%]","Test J disease control rating [7, 8] [%]",also measured
"3-[4-[4-chloro-2-methyl-1-(4-methylphenyl)-1H-imidazol-5-yl]-3,5-difluorophenoxy]-N-methyl-1-propanamide hydrochloride [Compound 734]",100,99,99,99,100,95,"Test H disease control rating [5, 8]: 41%"
"5-[4-chloro-5-(2,6-difluoro-4-methoxyphenyl)-1H-imidazol-1-yl]-2-(trifluoromethyl)pyridine [Example 34]",,,,,,,Test C disease control rating ([1]; 40 ppm (marked *)): 99* %; Test D disease control rating ([2]; 40 ppm (marked *)): 100* %; Test F disease control rating ([3]; 40 ppm (marked *)): 99* %; Test G disease control rating ([4]; 40 ppm (marked *)): 90* %; Test H disease control rating ([5]; 40 ppm (marked *)): 91* %; Test I disease control rating ([6]; 40 ppm (marked *)): 100* %; Test J disease control rating ([7]; 40 ppm (marked *)): 100* %
"Cc1nn(C)c(Cc2ccc(F)cc2F)c1-c1ccc(F)cc1Cl [Compound 313, 4-(2-chloro-4-fluorophenyl)-5-[(2,4-difluorophenyl)methyl]-1,3-dimethyl-1H-pyrazole]",,,,,,,"pest or weed control at 200 ppm ([1]; Botrytis cinerea, 120 h, 200 ppm, 0 = no control relative to controls): 99%; pest or weed control at 200 ppm ([2]; Alternaria solani, 168 h, 200 ppm, 0 = no control relative to controls): 100%; pest or weed control at 200 ppm ([3]; Parastagonospora nodorum, 264 h, 200 ppm, 0 = no control relative to controls): 0%; pest or weed control at 200 ppm ([5]; Puccinia recondita, 96 h, 200 ppm, 0 = no control relative to controls): 95%; pest or weed control at 200 ppm ([6]; Puccinia recondita, 168 h, 200 ppm, 0 = no control relative to controls): 100%; pest or weed control at 200 ppm ([7]; Blumeria graminis, 168 h, 200 ppm, 0 = no control relative to controls): 99%"
"COc1cc(F)c(-c2c(Cl)nc(C)n2-c2ccc(SC#N)cc2)c(F)c1 [Compound 741, 4-[4-chloro-5-(2,6-difluoro-4-methoxyphenyl)-2-methyl-1H-1-yl]phenyl thiocyanate]",100,99,92,,99,72,"Test H disease control rating [5, 8]: 0%"
Cc1nc(C)n(-c2ccc(Cl)cc2)c1-c1c(F)cc(F)cc1F [compound 45],100,98,100,,100,100,"Test H disease control rating [5, 8]: 99%"
Cc1nn(C)c(Cc2cccc(F)c2)c1-c1ccc(F)cc1Cl [compound 311],98,9,0,,99,95,"Test H disease control rating [5, 8]: 100%"
Cc1nn(C)c(Cc2ccc(F)cc2)c1-c1ccc(F)cc1Cl [compound 312],99,82,0,,99,92,"Test H disease control rating [5, 8]: 9%"
COc1ccc(F)c(-c2c(Cl)nc(Cl)n2-c2ccc(I)cc2)c1F [compound 444],99,100,100,98,95,99,
Cc1nc(Br)n(-c2c(F)cc(F)cc2F)c1-c1ccc(Cl)cc1 [compound 445],,,,95,,,"Test C disease control rating [1, 9]: 97* %; Test D disease control rating [2, 9]: 100* %; Test F disease control rating [3, 9]: 92* %; Test I disease control rating [6, 9]: 97* %; Test J disease control rating [7, 9]: 98* %"
Cc1nc(Cl)n(-c2c(F)cc(F)cc2F)c1-c1ccc(Cl)cc1 [compound 446],,,,,,,"Test C disease control rating [1, 9]: 96* %; Test D disease control rating [2, 9]: 100* %; Test F disease control rating [3, 9]: 0* %; Test G disease control rating [4, 9]: 95* %; Test I disease control rating [6, 9]: 68* %; Test J disease control rating [7, 9]: 91* %"
Cc1ncn(-c2c(F)cc(F)cc2F)c1-c1ccc(Cl)cc1 [compound 447],94,80,0,30,0,81,
COc1ccc(F)c(-c2c(Cl)ncn2-c2ccc(I)cc2)c1F [compound 448],97,100,89,98,95,98,
COc1ccc(F)c(-c2c(Br)ncn2-c2ccc(Cl)cc2)c1F [compound 449],99,100,99,97,99,100,
Cc1c(CCl)sc(-c2cnc(Cl)n2-c2ccc(Cl)cc2)c1Cl [compound 451],0,0,0,82,19,0,
Cc1cc(-c2cnc(Cl)n2-c2ccc(Cl)cc2)sc1CCl [compound 452],55,0,0,86,86,76,
COc1cc(F)c(-c2c(Cl)nc(Cl)n2-c2cccc(Cl)c2)c(F)c1 [compound 453],99,100,,93,100,100,Test F disease control rating ([3]; 40 ppm (marked *)): 90* %
COc1cc(F)c(-c2c(Cl)nc(Cl)n2-c2ccc(F)c(F)c2)c(F)c1 [compound 454],77,100,33,93,100,100,
Fc1cc(-n2c(Cl)nc(Cl)c2-c2ccncc2F)ccc1Cl [compound 455],99,95,0,95,99,68,
COc1nc(Cl)c(-c2c(Cl)nc(Cl)n2-c2ccc(Cl)c(F)c2)s1 [compound 456],0,0,0,88,0,43,
Fc1cc(-n2c(Cl)nc(Cl)c2-c2cccnc2Cl)ccc1Cl [compound 458],96,16,0,92,95,89,
Fc1cc(F)c(-c2c(Cl)nc(Cl)n2-c2cccc(OC(F)F)c2)c(F)c1 [compound 597],100,100,97,98,,100,"Test H disease control rating [5, 8]: 99%"
COc1cc(F)c(-c2c(Cl)nc(Br)n2-c2ccc(Cl)nc2)c(F)c1 [compound 729],100,100,99,99,100,100,
